According to patent US20060116375A1, “4-[(2,4-Dichloro-5-methoxyphenyl)amino]-6-alkoxy-7-ethynyl-3-quinolinecarbonitriles for the treatment of ischemic injury” (Wyeth, priority 2004, published 2006):
pIC50: −log10 of the molar value. “And” between values parts separate entries of the source, which are not always exact repeats. Equal values may be shown once.

What was measured:
[1] = molecular target: Rat2 fibroblasts stably transformed with v-Src/Hu c-Src fusion gene (Homo sapiens, UniProt P12931, cells depend on it, form not given); experiment: Anchorage independent Src-transformed fibroblast proliferation assay; type: cell-based, rat; conditions: suspension growth, MTS on Day 5; multiple entries = tested multiple times; read-out: Src cell IC50
Rat2 fibroblasts stably transformed with v-Src/Hu c-Src fusion gene, sequence (P12931 whole entry, change not shown, the tested form may be a part): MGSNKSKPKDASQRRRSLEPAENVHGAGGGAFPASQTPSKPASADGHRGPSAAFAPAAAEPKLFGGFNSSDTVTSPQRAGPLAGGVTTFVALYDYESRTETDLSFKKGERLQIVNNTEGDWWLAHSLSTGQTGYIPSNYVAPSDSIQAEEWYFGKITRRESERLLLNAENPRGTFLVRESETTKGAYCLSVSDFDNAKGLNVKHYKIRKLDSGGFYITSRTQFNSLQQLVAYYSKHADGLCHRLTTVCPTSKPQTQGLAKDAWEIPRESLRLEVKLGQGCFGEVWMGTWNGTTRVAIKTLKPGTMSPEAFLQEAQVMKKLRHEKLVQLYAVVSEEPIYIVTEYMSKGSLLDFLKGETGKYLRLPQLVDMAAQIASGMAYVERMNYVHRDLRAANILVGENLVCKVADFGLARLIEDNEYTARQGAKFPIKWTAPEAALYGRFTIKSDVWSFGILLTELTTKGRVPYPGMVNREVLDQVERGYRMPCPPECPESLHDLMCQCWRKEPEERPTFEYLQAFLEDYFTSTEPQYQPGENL
Description: Anchorage Independent Src-transformed Fibroblast Proliferation Assay
Rat2 fibroblasts stably transformed with a plasmid containing a CMV promotor controlled v-Src/Hu c-Src fusion gene in which the catalytic domain of human c-Src was inserted in place of the v-Src catalytic domain in the v-Src gene are used for the measurement of src dependent suspension growth. Ultra-low cluster plates (Costar # 3474) are seeded with 10,000 cells per well on Day 1. Alternatively, Ultra-low cluster plates (Costar 3474) treated with Sigmacote (Sigma), rinsed with 70% ethanol, after drying in the hood, are seeded with 5000 cells.

[2] = molecular target: Recombinant human Src enzyme (Homo sapiens, UniProt P12931); experiment: Src kinase assay (LANCE homogeneous FRET); type: biochemical; conditions: 100 μM ATP, 70 min at 37° C.; multiple entries = tested multiple times
Recombinant human Src enzyme, sequence (P12931 whole entry): as the sequence (P12931 whole entry, change not shown, the tested form may be a part) above
Description: Recombinant human Src enzyme was obtained from PanVera (P3044). […] Homogeneous fluorescence resonance energy transfer kinase assays were performed using the europium/APC detection format (LANCE, Perkin Elmer). Src enzyme (10 ng) was mixed with biotinylated peptide (final concentration 2 μM), 50 mM Hepes (pH 7.5), 10 mM MgCl2, 20 ug/ml BSA, 0.001% Brij-35 (Sigma), 100 μM ATP, 1% DMSO. The kinase reaction was incubated for 70 min at 37° C. The reaction was stopped with EDTA at a final concentration of 30 mM EDTA/25 mM Hepes (pH 7.5)/10 μg/ml BSA. The mixture was combined with Eu-labeled anti-phosphotyrosine antibody PT66 (Perkin Elmer, AD0068) and Streptavidin Surelight-APC (Perkin Elmer, CR130-100) in 50 mM Hepes (pH 7.5)/20 μg/ml BSA, and incubated for 30 min according to manufacturer's specifications. Fluorescence intensity at 665 nm was used to monitor the extent of the kinase reaction. Multiple entries for a given compound indicate that it was tested multiple times.

[3] = tested on: rat model of intracerebral hemorrhage; experiment: Rat model of intracerebral hemorrhage induced by intrastriatal infusion of collagenase; type: in vivo; conditions: measured 24 hours later
Description: IV Administration of Example 2 Provides Neuroprotection in the Model of Hemorrhagic Stroke
Example 2 was tested in a rat model of intracerebral hemorrhage induced by intrastriatal infusion of collagenase substantially as described by Rosenberg et al., Stroke, 1990, 20:801. In this model, infusion of collagenase into caudate nucleus leads to proteolytic destruction of collagen in basal lamina of blood vessels and induces intracranial bleeding and edema peaking in 24-48 hours. Example 2 was administered at 4 hours post-induction of hemorrhagic stroke as a single i.v injection at the doses of 10 mg/kg or 30 mg/kg. 24 hours later brain water content was determined as a measure of edema.

[4] = tested on: rat model of transient focal ischemia; experiment: Rat model of transient focal ischemia (90 min MCA occlusion, reperfusion 48 hours); type: in vivo, Wistar rats; conditions: for reduction in infarct volume as a percent of control: 48 hours post MCA occlusion, statistical error 7-10%; for improved recovery from stroke-induced neurological deficits, as a percent of control: evaluated over 48 hours, statistical error 10-12%
Description: IV Administration of Example 2 Provides Neuroprotection in a Model of Transient Focal Ischemia
Example 2 was tested in a rat model of transient focal ischemia. Wistar rats were subjected to a 90 min occlusion of the middle cerebral artery (MCA) using an intraluminal suture approach as described by Longa et al., Stroke 1989, 20:84 followed by reperfusion for 48 hours. Four hours after the initial onset of ischemia, animals received compound of Example 2 as a single i.v. bolus in 5% dextrose, 0.9% lactic acid at pH 4.5-5.0 (3 mg/kg, 10 mg/kg or 30 mg/kg). Following reperfusion, the animals were evaluated over a 48 hour period for neurological function deficit. Infarct size was measured following sacrifice at 48 hours post MCA occlusion.

[5] = tested on: rat model of permanent occlusion of middle cerebral artery; experiment: Rat model of permanent occlusion of middle cerebral artery (permanent focal ischemia); type: in vivo
Description: IV Administration of Example 2 Provides Neuroprotection and Improves Long-Term Neurological Recovery in a Model of Permanent Focal Ischemia
Example 2 was tested in a rat model of permanent occlusion of middle cerebral artery, without the reperfusion, substantially as described by Chen et al., Stroke, 1986, 17:738. This is a more stringent model than the transient focal ischemia. Two hours following an electrocoagulation of middle cerebral artery, vehicle or Example 2 were administered at 10 mg/kg i.v followed by 3 additional doses of 10 mg/kg iv administered at 4, 24 and 26 hours post-induction of stroke. In one study, volume of infracted brain tissue was evaluated at 48 hour post-stroke. In a second study, animals were subjected to testing of sensori-motor function based on tactile and propioceptive limb placement substantially as described by DeRyck et al., Brain Res. 1992, 573:44 at three day intervals over a timecourse of three weeks following stroke. In the animals treated with Example 2 a statistically significant reduction by 24% of the infarct volume was found at 48 hours post-induction of stroke.

[6] = 10 mg/kg single i.v. bolus 4 hours after onset of ischemia
[7] = 30 mg/kg single i.v. bolus 4 hours after onset of ischemia

Structure (SMILES) | GI50 [1] | pIC50 [2] | reduction of post-hemorrhagic brain edema (brain water content) ([3]; 10 mg/kg single i.v. injection 4 hours post-induction) | reduction of post-hemorrhagic brain edema (brain water content) ([3]; 30 mg/kg single i.v. injection 4 hours post-induction) | reduction in infarct volume as a percent of control [4, 6] | improved recovery from stroke-induced neurological deficits, as a percent of control [4, 6] | reduction in infarct volume as a percent of control [4, 7] | improved recovery from stroke-induced neurological deficits, as a percent of control [4, 7] | reduction of the infarct volume ([5]; 10 mg/kg i.v. at 2, 4, 24 and 26 hours post-induction of stroke, 48 hours post-stroke) | long-term sensorimotor recovery from neurological deficits (limb placement) ([5]; 10 mg/kg i.v. at 2, 4, 24 and 26 hours post-stroke, tested at three day intervals over three weeks)
COc1cc(Nc2c(C#N)cnc3cc(C#CCCN(C)C)c(OC)cc23)c(Cl)cc1Cl [Example 1, 4-[(2,4-Dichloro-5-methoxyphenyl)amino]-7-[4-(dimethylamino)but-1-ynyl]-6-methoxy-3-guinolinecarbonitrile] | 252 nM and 240 nM | 8.30 and 8.33 | – | – | – | – | – | – | – | –
COc1cc(Nc2c(C#N)cnc3cc(C#CCCN4CCOCC4)c(OC)cc23)c(Cl)cc1Cl [Example 3, 4-[(2,4-Dichloro-5-methoxyphenyl)amino]-6-methoxy-7-(4-morpholin-4-ylbut-1-ynyl)-3-guinolinecarbonitrile] | 206 nM and 183 nM | 8.40 and 8.39 | – | – | – | – | – | – | – | –
COc1cc(Nc2c(C#N)cnc3cc(C#CCCN4CCNCC4)c(OC)cc23)c(Cl)cc1Cl [Example 4, 4-[(2,4-Dichloro-5-methoxyphenyl)amino]-6-methoxy-7-(4-Piperazin-1-ylbut-1-ynyl)-3-quinolinecarbonitrile] | 435 nM and 605 nM | 8.23 and 8.32 | – | – | – | – | – | – | – | –

Second part, led by results:

GI50 [1] | pIC50 [2] | Structure (SMILES) | reduction of post-hemorrhagic brain edema (brain water content) ([3]; 10 mg/kg single i.v. injection 4 hours post-induction) | reduction of post-hemorrhagic brain edema (brain water content) ([3]; 30 mg/kg single i.v. injection 4 hours post-induction) | reduction in infarct volume as a percent of control [4, 6] | improved recovery from stroke-induced neurological deficits, as a percent of control [4, 6] | reduction in infarct volume as a percent of control [4, 7] | improved recovery from stroke-induced neurological deficits, as a percent of control [4, 7] | reduction of the infarct volume ([5]; 10 mg/kg i.v. at 2, 4, 24 and 26 hours post-induction of stroke, 48 hours post-stroke) | long-term sensorimotor recovery from neurological deficits (limb placement) ([5]; 10 mg/kg i.v. at 2, 4, 24 and 26 hours post-stroke, tested at three day intervals over three weeks)
71 nM and 70 nM and 77 nM | 8.46 and 8.38 | COc1cc(Nc2c(C#N)cnc3cc(C#CCCN4CCN(C)CC4)c(OC)cc23)c(Cl)cc1Cl [Example 2, 4-[(2,4-Dichloro-5-methoxyphenyl)amino]-6-methoxy-7-[4-(4-methylpiperazin-1-yl)but-1-ynyl]-3-guinolinecarbonitrile] | 18% | 24% | 32% | 35% | 40% | 53% | 24% | significantly improved long-term sensorimotor recovery
96 nM and 183 nM and 154 nM and 103 nM | 8.19 and 8.55 | CCOc1cc2c(Nc3cc(OC)c(Cl)cc3Cl)c(C#N)cnc2cc1C#CCCN1CCN(C)CC1 [Example 5, 4-[(2,4-Dichloro-5-methoxyphenyl)amino]-6-ethoxy-7-[4-(4-methylpiperazin-1-yl)but-1-ynyl]-3-quinolinecarbonitrile] | – | – | – | – | – | – | – | –
